Columns and labels:
Test in all cases: Bliss excess, mean over the matrix (fraction); higher = more synergy
[1] = system: CCRF-CEM (T-Lymphoblastic Leukemia)
Procedure, shortened: (§1)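 Cell lines in DMEM/F12 or RPMI with 10% FBS were plated in 1536-well plates, held 24 hours at 37°C, 5% CO2, then given two-drug dose matrices for 72 hours (DMSO typically 0.2%). Viability was read by CellTiter-Glo 2.0 luminescence and scaled as inhibition from 0 (vehicle wells) to 1 (blank wells). Combination Emax is the second-highest inhibition in the matrix; Bliss excess is observed combination effect minus expected EA + EB − EA·EB, EA and EB being single-agent effects.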

[2] = system: HOS (Osteosarcoma)
Procedure, shortened: as §1

[3] = system: TE-15 (Esophageal Squamous Cell Carcinoma)
Procedure, shortened: as §1

[4] = system: KURAMOCHI (Ovarian Carcinoma)
Procedure, shortened: as §1

[5] = system: LU-135 (Small Cell Lung Carcinoma)
Procedure, shortened: as §1

[6] = system: AGS (Gastric Carcinoma)
Procedure, shortened: as §1

[7] = system: SNU-5 (Gastric Carcinoma)
Procedure, shortened: as §1

[8] = system: RC-K8 (B-Cell Non-Hodgkin's Lymphoma)
Procedure, shortened: as §1

[9] = system: KELLY (Neuroblastoma)
Procedure, shortened: as §1

[10] = system: HCC-78 (Lung Adenocarcinoma)
Procedure, shortened: as §1

[11] = system: COLO-205 (Colorectal Carcinoma)
Procedure, shortened: as §1

[12] = system: LB831-BLC (Bladder Carcinoma)
Procedure, shortened: as §1

[13] = system: NCI-H82 (Small Cell Lung Carcinoma)
Procedure, shortened: as §1

[14] = system: T98G (Glioblastoma)
Procedure, shortened: as §1

[15] = system: RO82-W-1 (Thyroid Gland Carcinoma)
Procedure, shortened: as §1

[16] = system: OVCA420 (Ovarian Carcinoma)
Procedure, shortened: as §1

[17] = system: Hs-578-T (Breast Carcinoma)
Procedure, shortened: as §1

[18] = system: ME-1 (Acute Myeloid Leukemia)
Procedure, shortened: as §1

[19] = system: Daoy (Other Solid Carcinomas)
Procedure, shortened: as §1

[20] = system: 42-MG-BA (Glioblastoma)
Procedure, shortened: as §1

Row | Structure (SMILES) | Bliss excess [1] | Bliss excess [2] | Bliss excess [3] | Bliss excess [4] | Bliss excess [5] | Bliss excess [6] | Bliss excess [7] | Bliss excess [8] | Bliss excess [9] | Bliss excess [10] | Bliss excess [11] | Bliss excess [12] | Bliss excess [13] | Bliss excess [14] | Bliss excess [15] | Bliss excess [16] | Bliss excess [17] | Bliss excess [18] | Bliss excess [19] | Bliss excess [20]
1 | CC(=O)c1c(C)c2cnc(Nc3ccc(N4CCNCC4)cn3)nc2n(C2CCCC2)c1=O [Palbociclib] + CC1(C)CCC(CN2CCN(c3ccc(C(=O)NS(=O)(=O)c4ccc(NCC5CCOCC5)c([N+](=O)[O-])c4)c(Oc4cnc5[nH]ccc5c4)c3)CC2)=C(c2ccc(Cl)cc2)C1 [Venetoclax] (first compound max 10 µM, 7x7, partner max 1 µM) | -0.008 | -0.0218 | -0.0257 | -0.0418 | 0.0482 | -0.0493 | 0.0453 | -0.0904 | 0.0358 | -0.0244 | -0.0065 | -0.0523 | -0.0648 | -0.0075 | -0.0825 | -0.0468 | -0.0447 | -0.0012 | 0.005 | -0.0093
2 | CC(=O)c1c(C)c2cnc(Nc3ccc(N4CCNCC4)cn3)nc2n(C2CCCC2)c1=O [Palbociclib] + Cc1c2c(nn1C)CSCc1cc(n(C)n1)CSc1cc(c3ccccc3c1)OCCCc1c(C(=O)O)n(C)c3c-2c(Cl)ccc13 [AZD5991] (first compound max 10 µM, 7x7, partner max 1 µM) | -0.014 | -0.0182 | -0.0236 | 0.0188 | 0.0165 | -0.04 | -0.0206 | -0.0555 | 0.0123 | -0.0015 | -0.0487 | -0.0092 | -0.0534 | 0.0003 | -0.0283 | -0.0313 | 0.0238 | -0.0141 | -0.0112 | -0.0391
3 | CC(=O)c1c(C)c2cnc(Nc3ccc(N4CCNCC4)cn3)nc2n(C2CCCC2)c1=O [Palbociclib] + Cn1cnc2c(F)c(Nc3ccc(Br)cc3Cl)c(C(=O)NOCCO)cc21 [Selumetinib] (first compound max 10 µM, 7x7, partner max 10 µM) | 0.0385 | 0.0109 | 0.0179 | 0.0078 | 0.0056 | -0.0123 | 0.0031 | -0.0203 | 0.09 | -0.0189 | -0.081 | -0.0339 | -0.0216 | -0.0103 | -0.0414 | -0.0157 | 0.0135 | -0.0321 | -0.0082 | -0.0776
4 | COc1cccc(OCCCN)c1-c1cc(Nc2cnc(C#N)cn2)n[nH]1 [Prexasertib] + CCc1c2c(nc3ccc(O)cc13)-c1cc3c(c(=O)n1C2)COC(=O)[C@]3(O)CC [SN-38] (first compound max 1 µM, 7x7, partner max 0.3 µM) | -0.0078 | 0.0409 | -0.0275 | 0.0311 | -0.0623 | -0.0467 | -0.0085 | -0.0506 | -0.0098 | -0.0337 | 0.153 | 0.0581 | 0.0347 | 0.0121 | 0.0431 | 0.0326 | 0.0856 | 0.0086 | 0.0128 | 0.0122
5 | C[C@@H](c1ccc2nccn2c1)n1nnc2ncc(-c3cnn(C)c3)nc21 [Savolitinib] + CC1(C)CCC(CN2CCN(c3ccc(C(=O)NS(=O)(=O)c4ccc(NCC5CCOCC5)c([N+](=O)[O-])c4)c(Oc4cnc5[nH]ccc5c4)c3)CC2)=C(c2ccc(Cl)cc2)C1 [Venetoclax] (first compound max 1 µM, 7x7, partner max 1 µM) | -0.0527 | -0.0243 | -0.0227 | -0.0274 | -0.0561 | -0.0729 | -0.0585 | -0.0489 | -0.0038 | -0.0514 | -0.0675 | -0.0978 | -0.0467 | -0.0064 | -0.0371 | -0.0505 | -0.0363 | -0.0192 | -0.0185 | -0.04
6 | C[C@@H](c1ccc2nccn2c1)n1nnc2ncc(-c3cnn(C)c3)nc21 [Savolitinib] + Cc1c2c(nn1C)CSCc1cc(n(C)n1)CSc1cc(c3ccccc3c1)OCCCc1c(C(=O)O)n(C)c3c-2c(Cl)ccc13 [AZD5991] (first compound max 1 µM, 7x7, partner max 1 µM) | 0.0088 | -0.0188 | -0.0511 | -0.0332 | -0.0056 | -0.0855 | 0.0188 | -0.0257 | -0.0138 | -0.0366 | -0.0386 | -0.0148 | -0.0763 | -0.021 | -0.0386 | -0.0134 | -0.0137 | -0.051 | -0.0141 | -0.0633
7 | Cn1cnc2c(F)c(Nc3ccc(Br)cc3Cl)c(C(=O)NOCCO)cc21 [Selumetinib] + C=CCn1c(=O)c2cnc(Nc3ccc(N4CCN(C)CC4)cc3)nc2n1-c1cccc(C(C)(C)O)n1 [AZD1775] (first compound max 10 µM, partner max 1 µM) | 0.0378 | -0.0713 | -0.0299 | 0.0427 | -0.0337 | 0.0064 | -0.0239 | -0.0714 | -0.0658 | -0.0293 | -0.0256 | -0.08 | -0.106 | -0.0395 | -0.0769 | -0.0093 | -0.0423 | -0.0255 | -0.0443 | -0.0509
8 | Cn1cnc2c(F)c(Nc3ccc(Br)cc3Cl)c(C(=O)NOCCO)cc21 [Selumetinib] + CC(C)n1c(=O)n(C)c2cnc3cc(F)c(-c4ccc(OCCCN5CCCCC5)nc4)cc3c21 [AZD1390] (first compound max 10 µM, 7x7, partner max 0.3 µM) | -0.0131 | -0.0404 | -0.0359 | -0.055 | -0.0318 | -0.0446 | 0.0649 | -0.0253 | -0.0177 | -0.0313 | -0.0209 | -0.0237 | -0.0349 | -0.0125 | -0.034 | 0.0018 | -0.0426 | 0.0338 | -0.021 | -0.0321
9 | Cn1cnc2c(F)c(Nc3ccc(Br)cc3Cl)c(C(=O)NOCCO)cc21 [Selumetinib] + CCN(CCO)CCCOc1ccc2c(Nc3cc(CC(=O)Nc4cccc(F)c4)[nH]n3)ncnc2c1 [AZD2811] (first compound max 10 µM, 7x7, partner max 1 µM) | 0.0007 | -0.0192 | -0.0741 | -0.0203 | -0.0118 | 0.11 | 0.0274 | 0.0763 | -0.0709 | -0.0124 | -0.0081 | -0.0385 | 0.0317 | -0.0104 | 0.0016 | 0.0471 | 0.0203 | -0.0296 | 0.012 | -0.0458
10 | Cn1cnc2c(F)c(Nc3ccc(Br)cc3Cl)c(C(=O)NOCCO)cc21 [Selumetinib] + C[C@@H]1COCCN1C2=NC(=NC(=C2)C3(CC3)[S@](=N)(=O)C)C4=C5C=CNC5=NC=C4 [AZD6738] (first compound max 10 µM, 7x7, partner max 10 µM) | -0.0108 | -0.0613 | 0.0391 | 0.0517 | 0.0383 | 0.0281 | 0.0524 | 0.0091 | -0.015 | -0.0254 | 0.0526 | -0.0569 | -0.0337 | -0.0174 | -0.0242 | 0.078 | 0.009 | -0.0752 | -0.0087 | -0.0061
11 | CC(=O)Nc1cccc(-n2c(=O)n(C3CC3)c(=O)c3c(Nc4ccc(I)cc4F)n(C)c(=O)c(C)c32)c1 [Trametinib] + Cc1nc(-c2cn3c(n2)-c2ccc(-c4cnn(C(C)(C)C(N)=O)c4)cc2OCC3)n(C(C)C)n1 [Taselisib] (first compound max 1 µM, 7x7, partner max 10 µM) | 0.0951 | 0.0604 | 0.0816 | 0.115 | 0.113 | 0.122 | 0.141 | 0.0907 | 0.132 | 0.0913 | 0.0229 | 0.0977 | 0.0361 | 0.0822 | 0.0426 | 0.0806 | 0.0773 | 0.118 | 0.0146 | 0.0593
12 | CC1(C)CCC(CN2CCN(c3ccc(C(=O)NS(=O)(=O)c4ccc(NCC5CCOCC5)c([N+](=O)[O-])c4)c(Oc4cnc5[nH]ccc5c4)c3)CC2)=C(c2ccc(Cl)cc2)C1 [Venetoclax] + C1CN(CCC1(C(=O)N[C@@H](CCO)C2=CC=C(C=C2)Cl)N)C3=NC=NC4=C3C=CN4 [Capivasertib] (first compound max 1 µM, 7x7, partner max 3 µM) | 0.0042 | -0.0243 | -0.0429 | -0.0538 | -0.0429 | -0.0406 | -0.0485 | -0.0173 | 0.0017 | -0.0331 | -0.0423 | -0.0272 | -0.0458 | -0.0382 | -0.0312 | -0.0357 | -0.0255 | 0 | 0.0117 | -0.0239
13 | CC1(C)CCC(CN2CCN(c3ccc(C(=O)NS(=O)(=O)c4ccc(NCC5CCOCC5)c([N+](=O)[O-])c4)c(Oc4cnc5[nH]ccc5c4)c3)CC2)=C(c2ccc(Cl)cc2)C1 [Venetoclax] + C=CCn1c(=O)c2cnc(Nc3ccc(N4CCN(C)CC4)cc3)nc2n1-c1cccc(C(C)(C)O)n1 [AZD1775] (first compound max 1 µM, partner max 1 µM) | 0.0922 | -0.0335 | -0.0737 | 0.0572 | -0.0538 | -0.0506 | -0.0649 | -0.0082 | 0.0593 | 0.0098 | -0.0661 | -0.0004 | 0.0342 | 0.0648 | -0.0757 | -0.0079 | -0.0347 | 0.0289 | -0.0683 | -0.0687
14 | CC1(C)CCC(CN2CCN(c3ccc(C(=O)NS(=O)(=O)c4ccc(NCC5CCOCC5)c([N+](=O)[O-])c4)c(Oc4cnc5[nH]ccc5c4)c3)CC2)=C(c2ccc(Cl)cc2)C1 [Venetoclax] + CCN(CCO)CCCOc1ccc2c(Nc3cc(CC(=O)Nc4cccc(F)c4)[nH]n3)ncnc2c1 [AZD2811] (first compound max 1 µM, 7x7, partner max 1 µM) | -0.0322 | -0.0102 | -0.0386 | -0.0237 | -0.0099 | 0.0196 | -0.0426 | 0.0214 | 0.0038 | -0.0149 | -0.0461 | -0.0073 | 0.0452 | -0.0169 | -0.0604 | -0.0114 | -0.0451 | -0.0118 | -0.0311 | 0.0019

Source: the supplement of paper PMC11061612
